Laboratory results published in patent US20150040894A1 (VIRGINIA COMMONWEALTH UNIVERSITY, priority 2010, published 2015).
Each block holds one compound with its values, some of them ahead of it.

Tests used:
[1] = tested on: IL-8 mRNA expression in NHBE cells; experiment: IL-8 mRNA expression by real-time quantitative PCR; format: cell-based, human; conditions: 4 h
Procedure: For the relative quantification of IL-8 mRNA expression, the expression of glyceraldehyde-3-phosphate dehydrogenase (GAPDH) was served as an internal control. EvaGreen was used as a DNA intercalator dye to monitor amplified DNA quantification, and real-time quantitative PCR curves were analyzed by the CFX Manager™ software (Bio-Rad) in order to obtain threshold cycle (Ct) values for each sample. Quantification was based on a standard curve. Appropriate IL-8 and GADPH forward and reverse primers were used.

[2] = tested on: IL-8 secretion from NHBE cells; experiment: LPS-induced IL-8 secretion from NHBE cells in culture (ELISA); format: cell-based, human
Procedure: NHBE cells (Lonza Walkersville, Walkersville, Md.) were plated at 3,500 cells/cm^2 in culture dishes in bronchial epithelial cell growth medium (BEGM) supplemented with the SingleQuot® kit (Lonza) without antibiotics and cultured at 37° C. in a 5% CO2 incubator. We used endotoxin-free media (<0.005 endotoxin units/ml) and second-passage cells for all experiments. Cells were grown to confluence for 6 days. Cultures without antibiotics were then transferred to 6-well or 35 mm dishes coated with type 1 rat-tail collagen and seeded at 3,500 cells/cm^2. The medium was changed every 24 h. To avoid influence of growth factors on cell signaling and IL-8 secretion, cells were cultured in supplement-free bronchial epithelial cell basal medium (BEBM) for 24 h before stimulation. We evaluated cell response at the time of cell confluence rather than normalize to the relative number of cells because cell maturation could affect cell signaling and cytokine secretion, and at confluence, all cells are at similar growth stages. Culture supernatants were collected and centrifuged for 5 min at 200×g and stored at −20° C. until assayed. IL-8 was measured by ELISA (Beckman Coulter, Inc., Brea, Calif.) according to the manufacturer's instructions. Concentrations in each sample were obtained by interpolation from standard curves, and calculated as the mean of the results at the sample dilution. […] We chose to assess cell response at the time of cell confluence rather than normalize to the relative number of cells, because cell maturation could potentially affect cell signaling and cytokine secretion, and at confluence, all cells are at similar growth stages.

[3] = tested on: ERK1/2 phosphorylation in NHBE cells; experiment: LPS-induced phosphorylation of MAPKs (Western blotting); format: cell-based, human
Procedure: Membranes were stripped with a stripping buffer (100 mM 2-mercaptoethanol, 2% SDS, and 62.5 mM Tris/HCl pH 6.7) for 30 min at 30° C. The blots were reprobed with anti-p44/42 MAPK, anti-p38 MAPK, or anti-SAPK/JNK antibody (diluted 1:1000 for each), followed by anti-rabbit-IgG HRP secondary antibody (diluted 1:2000). To correct small differences in loading for NF-κB p65, blots were stripped, and reprobed with anti-human β-actin antibody (diluted 1:5000), followed by anti-mouse IgG HRP secondary antibody (diluted 1:5000). Western blot images were scanned and analyzed on NIH Image J software (18).

[4] = tested on: apical and basolateral IL-8 secretion from ALI-conditioned NHBE cells; experiment: IL-8 secretion from NHBE cells cultured under air-liquid interface (ALI) condition; format: cell-based, human; conditions: dapsone 1 μg/ml in basolateral medium, LPS 10 μg/ml 24 h
Procedure: For NHBE cell differentiation, cells were plated at 2.0×10^5 cells/cm^2 onto polycarbonate inserts of 6.5-mm diameter, 0.4-μm pore size and 10-μm thickness (Costar Transwell Clear, Cambridge, Mass., USA) coated with type 1 rat-tail collagen, and cultured with serum-free DMEM/F12 medium containing ITS-A (1.0%; Invitrogen Co., Carlsbad, Calif.), epidermal growth factor (EGF) (recombinant human EGF, 0.5 ng/ml; Invitrogen Co.), triiodothyronine (10 ng/ml; […] Sigma-Aldrich), bovine serum albumin (2.0 μg/ml; Sigma-Aldrich) and bovine pituitary extract (30 μg/ml; Invitrogen Co.). After achieving confluence, the apical medium was removed, and cells were cultured with an air-liquid-interface (ALI) method. The culture medium was changed every 48 h, and cells were maintained at 37° C. in a 5% CO2, for 10-14 days. Culture supernatants were collected and centrifuged for 5 min at 200×g and stored at −20° C. until assayed. IL-8 was measured by ELISA (Beckman Coulter, Inc., Brea, Calif.) according to the manufacturer's instructions. Concentrations in each sample were obtained by interpolation from standard curves, and calculated as the mean of the results at the sample dilution. […] NHBE cells were stimulated with LPS from the apical (AP-LPS) or basolateral side (BL-LPS) for 24 h, and IL-8 secretion levels in both chambers were measured. […]

[5] = tested on: NF-κB p65 phosphorylation in NHBE cells; experiment: LPS-induced phosphorylation of NF-κB p65 (Western blotting); format: cell-based, human
Procedure: After stimulation, the plated cells were washed with cold PBS, and then lysed on ice in a modified radio immunoprecipitation buffer (1% Nonidet P-40, 1% sodium deoxycholate, 150 mM NaCl, 10 mM Tris pH 7.5, 5 mM sodium pyrophosphate, 1 mM NaVO4, 5 mM NaF, 1 μg/ml aprotinin, 1 μg/ml leupeptin, and 0.1 mM PMSF) for 15 min and then scraped from the dishes. DNA was sheared by passing the lysate though a 27-gauge needle, and insoluble material was removed by centrifugation at 20,000 g for 15 min at 4° C. The protein concentration of the resulting supernatant was quantified by the DC protein assay (Bio-Rad, Hercules, Calif.). Equal amounts of protein extracts were loaded on a 12% SDS-PAGE mini gel and transferred to a nitrocellulose membrane (Bio-Rad). Membranes were blocked with blocking buffer (150 mM NaCl, 20 mM Tris, and 0.1% Tween 20, pH 7.6) containing 5% nonfat dry milk at 4° C. overnight. Subsequently, membranes were rinsed and incubated with the primary antibody: phospho (p)-p44/42 MAPK (Thr202/Tyr204) (diluted 1:2000), p-p38 MAPK (Thr180/Tyr182) (diluted 1:1000), p-SAPK/JNK (Thr183/Tyr185) (diluted 1:1000), or p-NF-κB p65 rabbit polyclonal IgG (diluted 1:1000) (Cell Signaling Technology), for 2 h at room temperature. The membranes were then incubated at room temperature for 1 h with the anti-rabbit IgG HRP secondary antibody (diluted 1:2000). Subsequently, the blots membranes were developed with LumiGLO chemiluminescent substrate peroxide (Cell Signaling Technology).
Membranes were stripped with a stripping buffer (100 mM 2-mercaptoethanol, 2% SDS, and 62.5 mM Tris/HCl pH 6.7) for 30 min at 30° C. The blots were reprobed with anti-p44/42 MAPK, anti-p38 MAPK, or anti-SAPK/JNK antibody (diluted 1:1000 for each), followed by anti-rabbit-IgG HRP secondary antibody (diluted 1:2000). […] Western blot images were scanned and analyzed on NIH Image J software (18).
The […] phosphorylation of NF-κB p65 was measured by Western blotting. The band intensity was calculated with NIH Image J software.

[6] = Ferret activity, appetite and weight after tracheal LPS with and without dapsone; format: in vivo; conditions: LPS 5 days, 5-day dapsone treatment (oral or nebulized) vs vehicle
Procedure: (§1) Twenty adult male ferrets (weight, 1.3 to 2.0 kg) were obtained from Marshall Farms (Rose, N.Y.). Ferrets were anesthetized with 40 mg/kg ketamine and 5 mg/kg xylazine, and exposed to endotoxin for 30 min once daily for 5 days by incubating with a 3.0 uncuffed endotracheal tube (ETT) coated with 10 mg of LPS mixed in 300 μl water soluble K-Y jelly (Johnson & Johnson, New Brunswick, N.J.) (Abanses et al., 2009). As controls, K-Y jelly without LPS was used in two ferrets.
(§2) This is equivalent to the oral dose used to treat persons with skin disease. For aerosol inhalation, ferrets were shallowly intubated with ETT, which was placed 1 cm below the larynx. […] Ferrets (body weight 1.5 kg) have 0.3-0.4 ml total lung lining fluid volume. Therefore, the dose delivered to the lung, is estimated to be 0.1 to 1.0 μg in this system given reported nebulization efficiency.

[7] = tested on: LPS-inflamed ferret trachea; experiment: Intraepithelial neutrophil accumulation in LPS-inflamed ferret trachea; format: in vivo; conditions: 5 days
[8] = tested on: LPS-inflamed ferret trachea; experiment: Mucociliary transport (MCT) on excised tracheal segments; format: in vivo; conditions: 5 days
Procedure: as §1
as §2, with “efficiency. […]” for “efficiency.”
A tracheal segment was placed on a piece of gauze saturated with Ringer's solution in a chamber in which the relative humidity was maintained at 95 to 100% and the temperature was maintained at 22° C. to 24° C. MCT was measured by focusing a tracheal segment under a microscope with gradicule (grid line) eyepiece and recording the transport time of the leading edge of very fine shavings of plastic that were placed on the tracheal epithelium. […]

[9] = tested on: IL-13 induced goblet cell hyperplasia in NHBE cells; experiment: In vitro model of IL-13 induced goblet cell hyperplasia, ALI-conditioned NHBE cells; format: cell-based, human
Excerpt: Globlet cells are columnar epithelial cells whose sole function is to secrete mucin, which dissolves in water to form mucus. […] An in vitro model of goblet cell hyperplasia was developed using normal human bronchial epithelial (NHBE) cells cultured under air-liquid interface (ALI) conditions.

[10] = tested on: steroid-dependent asthma patients; conditions: orally administered dapsone; cited from earlier work
[11] = in vivo; cited from earlier work
IL-8 release from NHEK = conditions: cited from earlier work

Structure (SMILES): C[C@@H]1C[C@H]2[C@@H]3CCC4=CC(=O)C=C[C@]4(C)[C@@]3(F)[C@@H](O)C[C@]2(C)[C@@]1(O)C(=O)CO [DEX, dexamethasone]
- decrease of basal IL-8 mRNA level ([1]; DEX 0.1 μg/ml, P<0.05): ~40%

Structure (SMILES): COc1cccc(-c2cc(=O)c3ccccc3o2)c1N [PD98059, 2′-amino-3′-methoxyflavone]
- LPS-induced IL-8 secretion ([2]; PD98059 20 μM added 1 h before LPS): did not inhibit
- LPS-induced ERK1/2 phosphorylation ([3]; PD98059 20 μM added 1 h before LPS 10 μg/ml, 4 h): abolished

- ferret activity or appetite [6]: no measurable effect
- ferret weight over 9 days [6]: no difference
- growth of ALI-conditioned NHBE cells ([9]; dapsone 3 μg/ml, no IL-13): no measurable effect
Structure (SMILES): Nc1ccc(S(=O)(=O)c2ccc(N)cc2)cc1 [dapsone, 4,4′-diaminodiphenyl sulfone]
- basal IL-8 secretion ([2]; dapsone 1 μg/ml, 48 and 72 h, no LPS): did not affect
- LPS-induced IL-8 secretion over time ([2]; dapsone 1 μg/ml, LPS 10 μg/ml, up to 72 h): significantly and persistently decreased
- LPS-induced IL-8 secretion ([2]; dapsone 0.3, 1 or 10 μg/ml, LPS 10 μg/ml, 24 h, P<0.01 for each): suppressed
- basolateral IL-8 increased by AP- or BL-LPS ([4]; P<0.001 AP-LPS, P<0.01 BL-LPS): inhibited
- apical IL-8 level increased by AP-LPS ([4]; P<0.05): inhibited
- basal IL-8 mRNA level ([1]; dapsone 1 μg/ml): did not influence
- LPS-induced IL-8 mRNA over expression ([1]; dapsone 1 and 10 μg/ml, LPS 10 μg/ml, P<0.05 for each): significantly inhibited
- LPS-induced ERK1/2 phosphorylation at 1 h ([3]; dapsone 1 μg/ml, LPS 10 μg/ml, 1 h, P<0.05): inhibited
- LPS-induced ERK1/2 phosphorylation after 4 h ([3]; dapsone 1 μg/ml, LPS 10 μg/ml, after 4 h): this effect disappeared
- NF-κB p65 activation ([5]; dapsone 0.3 μg/mL): did not significantly inhibit
- LPS-induced NF-κB p65 phosphorylation ([5]; dapsone 1 μg/ml, LPS 10 μg/ml, 15 min to 2 h, to the control level): significantly inhibited
- dose dependence of inhibition of NF-κB p65 phosphorylation ([5]; dapsone 0.3, 1 and 10 μg/ml (P=0.16 for 0.3; P<0.01 for 1 and 10 μg/ml)): dose-dependent
- neutrophil accumulation in tracheal epithelium ([7]; nebulized dapsone 0.5 mg/ml, 15 min once daily, P<0.05): significantly inhibited
- neutrophil recruitment in tracheal epithelium ([7]; oral dapsone 2 mg/kg daily, P=0.3): tended to inhibit
- MCT velocity ([8]; aerosol dapsone 0.5 mg/ml, 15 min once daily, P=0.007 vs LPS control, normal approximately 7 mm/min): 6 mm/min
- MCT ([8]; oral dapsone 2 mg/kg daily, P=0.09, LPS alone 1-3 mm/minute): the increase was not significant
- amount and extent of IL-13 induced goblet cell hyperplasia ([9]; dapsone 10 μg/ml, vs control cell cultures): decreased
- patients able to substantially reduce or stop taking steroids [10]: 9 out of 10
- therapeutic serum levels [11]: 0.5 to 5 µg/mL
- basal IL-8 level (IL-8 release from NHEK; NHEK): did not depress
- bullous pemphigoid IgG-mediated IL-8 release (IL-8 release from NHEK; dapsone in a therapeutic concentration): inhibited
